Experimental data reported in patent publication US6372747B1, “Farnesyl protein transferase inhibitors” (Schering Corporation, priority 1998, dated 2002).

Tested on: Human tumor cells
Experiment: Soft Agar Assay (anchorage-independent growth)
Format: cell-based
Conditions: Homo sapiens, range stated for the group unless single
Experimental: Anchorage-independent growth is a characteristic of tumorigenic cell lines. Human tumor cells can be suspended in growth medium containing 0.3% agarose and an indicated concentration of a farnesyl transferase inhibitor. The solution can be overlayed onto growth medium solidified with 0.6% agarose containing the same concentration of farnesyl transferase inhibitor as the top layer. After the top layer is solidified, plates can be incubated for 10-16 days at 37° C. under 5% CO2 to allow colony outgrowth. After incubation, the colonies can be stained by overlaying the agar with a solution of MTT (3-[4,5-dimethyl-thiazol-2-yl]-2,5-diphenyltetrazolium bromide, Thiazolyl blue) (1 mg/mL in PBS). Colonies can be counted and the IC50's can be determined.

`CC(C)COC(=O)N1CCN([C@@H]2c3ccc(Cl)cc3CCc3cc(Br)cnc32)C[C@@H]1C(=O)N(CCCn1ccnc1)Cc1ccccc1` [Example 184] and `Cc1cn(CCCN(Cc2ccccc2)C(=O)[C@H]2CN([C@@H]3c4ccc(Cl)cc4CCc4cccnc43)CCN2C(=O)OC2CCCC2)cn1` [Example 202] fall in the same range of IC50: 2 to 10 nM for the first, 2 to 10 nM for the second.

Tested on: not given
Experiment: not given
Conditions: not given

Compared with `O=C(NCCc1cnc(O)[nH]1)[C@H]1CN(C2c3ccc(Cl)cc3CCc3cc(Br)cnc32)CCN1C(=O)NC1CCCCC1` (stereo partly drawn) [Example 297], `O=C(NCCc1cnc(C(F)(F)F)[nH]1)[C@H]1CN(C2c3ccc(Cl)cc3CCc3cc(Br)cnc32)CCN1C(=O)NC1CCCCC1` (stereo partly drawn) [Example 294] is lower in melting point: 182.1 to 219.4 °C for the first, 173.8 °C for the second.

First: O=C(NCCC(c1ccc(Cl)cc1)n1ccnc1)[C@H]1CN(C2c3ccc(Cl)cc3CCc3cc(Br)cnc32)CCN1C(=O)NC1CCCCC1 (stereo partly drawn) [Example 5]
Second: CC(CCNC(=O)[C@H]1CN(C2c3ccc(Cl)cc3CCc3cc(Br)cnc32)CCN1C(=O)NC1CCCCC1)n1ccnc1 (stereo partly drawn) [Example 19]
The melting point of the first is higher: 138 to 140 °C for the first, 133 to 138 °C for the second.

First: CC(C)(C)OC(=O)N1CCN(C2c3ccc(Cl)cc3CCc3cc(Br)cnc32)C[C@@H]1C(=O)NCCc1cncn1CCc1ccccc1 (stereo partly drawn) [Example 44]
Second: CCCn1cncc1CCNC(=O)C1CN(C2c3ccc(Cl)cc3CCc3cc(Br)cnc32)CCN1C(=O)OC(C)(C)C (stereo not drawn) [Example 41]
The melting point of the first is lower: 101 to 103 °C for the first, 116 to 123 °C for the second.

Compared with `CC(C)(C)NC(=O)N1CCN([C@H]2c3ccc(Cl)cc3CCc3cc(Br)cnc32)C[C@@H]1C(=O)NCCC1(n2ccnc2)CC1` [Example 12], `CC(C)(C)NC(=O)N1CCN([C@@H]2c3ccc(Cl)cc3CCc3cc(Br)cnc32)C[C@@H]1C(=O)NCCC1(n2ccnc2)CC1` [Example 13] is lower in melting point: 136 to 139 °C for the first, 106 to 110 °C for the second.

Compared with `CC(C)(CCNC(=O)[C@H]1CN([C@H]2c3ccc(Cl)cc3CCc3cc(Br)cnc32)CCN1C(=O)Cc1cc[n+]([O-])cc1)n1ccnc1` [Example 6], `Cn1cncc1CCNC(=O)[C@H]1CN(C2c3ccc(Cl)cc3CCc3cc(Br)cnc32)CCN1C(=O)Cc1cc[n+]([O-])cc1` (single isomer, unassigned) [Example 36] is higher in melting point: 115 to 117 °C for the first, 168.9 to 172.3 °C for the second.

First: Cn1cncc1CCNC(=O)[C@H]1CN(C2c3ccc(Cl)cc3CCc3cc(Br)cnc32)CCN1C(=O)N1CCOCC1 (single isomer, unassigned) [Example 31]
Second: Cn1cncc1CCNC(=O)[C@H]1CN(C2c3ccc(Cl)cc3CCc3cc(Br)cnc32)CCN1C(=O)CC1CCN(C(N)=O)CC1 (single isomer, unassigned) [Example 39]
The melting point of the first is lower: 136.4 to 138.6 °C for the first, 148.1 to 150.4 °C for the second.

`Cn1cncc1CCNC(=O)[C@H]1CN(C2c3ccc(Cl)cc3CCc3cc(Br)cnc32)CCN1C(=O)Nc1ccc(F)cc1` (single isomer, unassigned) [Example 27] and `Cn1cncc1CCNC(=O)[C@H]1CN(C2c3ccc(Cl)cc3CCc3cc(Br)cnc32)CCN1C(=O)c1ccc(F)cc1` (single isomer, unassigned) [Example 34] cannot be ordered by melting point: 140.1 to 149.4 °C for the first, 144.9 to 148.7 °C for the second.

Compared with `Cn1cncc1CCNC(=O)[C@H]1CN(C2c3ccc(Cl)cc3CCc3cc(Br)cnc32)CCN1C(=O)OCc1ccccc1` (stereo partly drawn) [Example 26], `CC(C)(CCNC(=O)[C@H]1CN(C2c3ccc(Cl)cc3CCc3cc(Br)cnc32)CCN1C(=O)OCc1ccccc1)n1ccnc1` (stereo partly drawn) [Example 3] is lower in melting point: 111.8 to 114.5 °C for the first, 103 to 106 °C for the second.

First: CC(C)Cn1cncc1CCNC(=O)[C@H]1CN(C2c3ccc(Cl)cc3CCc3cc(Br)cnc32)CCN1C(=O)OC(C)(C)C (stereo partly drawn) [Example 43]
Second: CCn1cncc1CCNC(=O)[C@H]1CN(C2c3ccc(Cl)cc3CCc3cc(Br)cnc32)CCN1C(=O)OC(C)(C)C (stereo partly drawn) [Example 40]
The melting point of the first is higher: 120 to 122 °C for the first, 54 to 58 °C for the second.

First: CC(C)(CCNC(=O)[C@H]1CN([C@@H]2c3ccc(Cl)cc3CCc3cc(Br)cnc32)CCN1C(=O)CC1CCN(C(N)=O)CC1)n1ccnc1 [Example 9]
Second: Cn1cncc1CCNC(=O)[C@H]1CN(C2c3ccc(Cl)cc3CCc3cc(Br)cnc32)CCN1C(=O)CC1CCN(C(=O)OC(C)(C)C)CC1 (single isomer, unassigned) [Example 37]
The melting point of the first is higher: 150 to 153 °C for the first, 141.7 to 143.2 °C for the second.

First: Cn1cncc1CCNC(=O)[C@H]1CN(C2c3ccc(Cl)cc3CCc3cc(Br)cnc32)CCN1C(=O)OC(C)(C)C (single isomer, unassigned) [Example 32]
Second: CC(C)n1cncc1CCNC(=O)[C@H]1CN(C2c3ccc(Cl)cc3CCc3cc(Br)cnc32)CCN1C(=O)OC(C)(C)C (stereo partly drawn) [Example 42]
The melting point of the first is higher: 134.9 to 137.5 °C for the first, 98 to 101 °C for the second.

First: CCN(CCCn1ccnc1)C(=O)[C@H]1CN(C2c3ccc(Cl)cc3CCc3cc(Br)cnc32)CCN1C(=O)NC1CCCCC1 (stereo partly drawn) [Example 111]
Second: CCCN(CCCn1ccnc1)C(=O)[C@H]1CN(C2c3ccc(Cl)cc3CCc3cc(Br)cnc32)CCN1C(=O)NC1CCCCC1 (stereo partly drawn) [Example 112]
The melting point of the first is higher: 79.3 °C for the first, 63.8 to 67.4 °C for the second.

`CC(C)(C)NC(=O)N1CCN([C@H]2c3ccc(Cl)cc3CCc3cc(Br)cnc32)C[C@@H]1C(=O)NCCC(C)(C)n1ccnc1` [Example 10] and `CN(C)C(=O)N1CCN(C2c3ccc(Cl)cc3CCc3cc(Br)cnc32)CC1C(=O)NCCC(C)(C)n1ccnc1` (stereo not drawn) [Example 18] fall in the same range of melting point: 139 to 142 °C for the first, 139 to 142 °C for the second.

First: CCn1cncc1CCN(CC1CC1)C(=O)[C@H]1CN(C2c3ccc(Cl)cc3CCc3cc(Br)cnc32)CCN1C(=O)OC(C)(C)C (stereo partly drawn) [Example 304]
Second: CCn1cncc1CCN(CC1CC1)C(=O)[C@H]1CN([C@H]2c3ccc(Cl)cc3CCc3cccnc32)CCN1C(=O)OC(C)(C)C [Example 307]
The melting point of the first is higher: 103.7 to 107.5 °C for the first, 89.1 to 96.5 °C for the second.

First: Cn1cncc1CCN(CC1CC1)C(=O)[C@H]1CN([C@H]2c3ccc(Cl)cc3CCc3cccnc32)CCN1C(=O)OC(C)(C)C [Example 306]
Second: CCn1cncc1CCN(CC1CC1)C(=O)[C@H]1CN([C@@H]2c3ccc(Cl)cc3CCc3cccnc32)CCN1C(=O)OC(C)(C)C [Example 308]
The melting point of the first is higher: 100 to 114 °C for the first, 89.1 to 96.5 °C for the second.

First: CC(C)OC(=O)N1CCN(C2c3ccc(Cl)cc3CCc3cc(Br)cnc32)C[C@@H]1C(=O)NCCc1cncn1C (single isomer, unassigned) [Example 30]
Second: CC(C)NC(=O)N1CCN(C2c3ccc(Cl)cc3CCc3cc(Br)cnc32)C[C@@H]1C(=O)NCCc1cncn1C (single isomer, unassigned) [Example 29]
The melting point of the first is lower: 120.3 to 126.1 °C for the first, 128.1 to 133.4 °C for the second.

`Cn1cncc1CCNC(=O)[C@H]1CN(C2c3ccc(Cl)cc3CCc3cc(Br)cnc32)CCN1C(=O)CC1CCNCC1` (single isomer, unassigned) [Example 38] and `Cn1cncc1CCNC(=O)[C@H]1CN(C2c3ccc(Cl)cc3CCc3cc(Br)cnc32)CCN1C(=O)Cc1ccc(F)cc1` (single isomer, unassigned) [Example 35] cannot be ordered by melting point: 136.1 to 139.5 °C for the first, 132.5 to 139.7 °C for the second.

Compared with `O=C(NCC1(c2cnc[nH]2)CC1)[C@H]1CN(C2c3ccc(Cl)cc3CCc3cc(Br)cnc32)CCN1C(=O)NC1CCCCC1` (stereo partly drawn) [Example 22], `CC(C)(CNC(=O)[C@H]1CN(C2c3ccc(Cl)cc3CCc3cc(Br)cnc32)CCN1C(=O)NC1CCCCC1)c1cnc[nH]1` (stereo partly drawn) [Example 21] is lower in melting point: 156 to 158 °C for the first, 150 to 154 °C for the second.

First: O=C(NCCCn1ccnc1CO)[C@H]1CN(C2c3ccc(Cl)cc3CCc3cc(Br)cnc32)CCN1C(=O)NC1CCCCC1 (stereo partly drawn) [Example 296]
Second: O=C(NCCn1nc2ccccc2n1)[C@H]1CN(C2c3ccc(Cl)cc3CCc3cc(Br)cnc32)CCN1C(=O)NC1CCCCC1 (stereo partly drawn) [Example 291]
The melting point of the first is higher: 141.2 °C for the first, 132 to 135 °C for the second.

First: Cn1cncc1CCN(Cc1ccccc1)C(=O)[C@H]1CN(C2c3ccc(Cl)cc3CCc3cccnc32)CCN1C(=O)OC(C)(C)C (single isomer, unassigned) [Example 62]
Second: Cn1cncc1CCN(Cc1ccccc1)C(=O)[C@H]1CN(C2c3ccc(Cl)cc3CCc3cc(Br)cnc32)CCN1C(=O)NC(C)(C)C (single isomer, unassigned) [Example 61]
The melting point of the first is lower: 93.1 to 99.8 °C for the first, 127 to 130 °C for the second.

Compared with `CN(CCCn1ccnc1)C(=O)[C@H]1CN(C2c3ccc(Cl)cc3CCc3cc(Br)cnc32)CCN1C(=O)NC1CCCCC1` (stereo partly drawn) [Example 110], `Cn1cncc1CCN(Cc1ccccc1)C(=O)[C@H]1CN(C2c3ccc(Cl)cc3CCc3cc(Br)cnc32)CCN1C(=O)NC1CCCCC1` (single isomer, unassigned) [Example 60] is higher in melting point: 118.4 °C for the first, 130 to 139 °C for the second.

Compared with `Cn1cncc1CCNC(=O)[C@H]1CN(C2c3ccc(Cl)cc3CCc3cc(Br)cnc32)CCN1S(C)(=O)=O` (single isomer, unassigned) [Example 33], `Cn1cncc1CCNC(=O)[C@H]1CN(C2c3ccc(Cl)cc3CCc3cc(Br)cnc32)CCN1C(=O)NC(C)(C)C` (single isomer, unassigned) [Example 28] is lower in melting point: 139 to 145.1 °C for the first, 128.1 to 135.2 °C for the second.

Compared with `Cc1cn(CCCN(Cc2ccccc2)C(=O)[C@H]2CN(C3c4ccccc4CCc4cc(Cl)cnc43)CCN2C(=O)OC2CCCCC2)cn1` (stereo partly drawn) [Example 395], `O=C(NCCn1nnc2ccccc21)[C@H]1CN(C2c3ccc(Cl)cc3CCc3cc(Br)cnc32)CCN1C(=O)NC1CCCCC1` (stereo partly drawn) [Example 292] is higher in melting point: 91 to 107 °C for the first, 127 to 132 °C for the second.

First: CC(C)(CCNC(=O)[C@H]1CN(C2c3ccc(Cl)cc3CCc3cc(Br)cnc32)CCN1S(C)(=O)=O)n1ccnc1 (mixture of isomers) [Example 15]
Second: CC(C)NC(=O)N1CCN(C2c3ccc(Cl)cc3CCc3cc(Br)cnc32)CC1C(=O)NCCC1(n2ccnc2)CC1 (stereo not drawn) [Example 14]
The melting point of the first is lower: 107 to 110 °C for the first, 133 to 139 °C for the second.

Compound `NC(=O)[C@H](Cc1cn(C(=O)NC2CCCCC2)cn1)NC(=O)[C@H]1CN(C2c3ccc(Cl)cc3CCc3cc(Br)cnc32)CCN1C(=O)NC1CCCCC1` (stereo partly drawn) [Example 24] has a melting point of 164 to 167 °C.
